Laboratory results from patent publication US7109354B2, “Thiophene amidines, compositions thereof, and methods of treating complement-mediated diseases and conditions” (3-Dimensional Pharmaceuticals, Inc., priority 2002, dated 2006).
Structures can show the parent of a compound that is named as a salt.

biological target: T1, Activated human C1s (Homo sapiens, UniProt P09871); test: In vitro inhibition of C1s (Ki determination, C1s-catalyzed hydrolysis of Z-Gly-Arg-S-Bzl, DTNB readout); type: biochemical; conditions: substrate Z-Gly-Arg-S-Bzl 45 μM, DTNB 200 μM, C1s 2.3 nM, pH 7.5, 37° C., absorbance at 405 nm
T1 construct: purchased Calbiochem (La Jolla, Calif.)
T1 sequence (P09871 438-688 limits assumed): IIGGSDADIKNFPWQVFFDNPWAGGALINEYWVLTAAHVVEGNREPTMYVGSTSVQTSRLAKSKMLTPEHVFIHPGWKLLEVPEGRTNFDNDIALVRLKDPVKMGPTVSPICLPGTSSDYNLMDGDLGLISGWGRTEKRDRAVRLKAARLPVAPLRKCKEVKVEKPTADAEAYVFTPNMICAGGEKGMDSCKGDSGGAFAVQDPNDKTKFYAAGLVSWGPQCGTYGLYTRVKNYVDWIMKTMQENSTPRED
T1 sequence (P09871 16-437 partner limits assumed): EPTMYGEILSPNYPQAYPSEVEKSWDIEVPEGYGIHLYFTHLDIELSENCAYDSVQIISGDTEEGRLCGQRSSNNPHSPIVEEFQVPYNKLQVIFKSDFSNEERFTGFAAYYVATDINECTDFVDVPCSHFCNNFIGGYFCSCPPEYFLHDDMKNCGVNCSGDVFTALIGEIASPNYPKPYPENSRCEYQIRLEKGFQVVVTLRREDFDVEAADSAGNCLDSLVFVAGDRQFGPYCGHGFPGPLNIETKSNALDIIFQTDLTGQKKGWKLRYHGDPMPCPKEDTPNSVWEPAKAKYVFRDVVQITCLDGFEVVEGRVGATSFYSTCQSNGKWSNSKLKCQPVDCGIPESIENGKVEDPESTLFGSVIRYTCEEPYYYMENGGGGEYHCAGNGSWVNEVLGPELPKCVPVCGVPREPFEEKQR
Description: Reagents: All buffer salts were obtained from Sigma Chemical Company (St. Louis, Mo.), and were of the highest purity available. DTNB was purchased from Pierce (Rockford, Ill.). Z-Gly-Arg-S-Bzl was purchased from Enzyme Systems Products (Livermore, Calif.). Activated human C1s was purchased from Calbiochem (La Jolla, Calif.).
Test compounds are prepared as a 10 μM solution in DMSO. Dilutions are prepared in DMSO yielding 7 final concentrations encompassing a 700-fold concentration range.
Reactions were initiated by the addition of a 10 μL aliquot of the enzyme, and the absorbance increase at 405 nm is continuously recorded for 15 minutes in a Molecular Devices plate reader. Final DMSO concentration was 4.3%. […] The ratio of the velocity (rate of change in absorbance as a function of time) for a sample containing no test compound is divided by the velocity of a sample containing test compound, and is plotted as a function of test compound concentration. The data are fit to a linear regression, and the value of the slope of the line calculated. The inverse of the slope is the experimentally determined Ki value.

Row | SMILES | Ki [nM]
1 | COc1cc(-c2ccccc2Cl)cc(S(=O)(=O)c2cc(C(=N)N)sc2SC)c1 [Example 19, 4-(2′-Chloro-5-methoxy-biphenyl-3-sulfonyl)-5-methylsulfanyl-thiophene-2-carboxamidine trifluoroacetate] | 6 to 23
2 | CSc1sc(C(=N)N)cc1S(=O)(=O)c1cccc(-c2ccc(O)c(C=O)c2)c1 [Example 26, 4-(3′-Formyl-4′-hydroxy-biphenyl-3-sulfonyl)-5-methylsulfanyl-thiophene-2-carboxamidine trifluoroacetate] | 6 to 23
3 | CSc1sc(C(=N)N)cc1S(=O)(=O)c1cccc(-c2ccccc2)c1 [Example 117, 4-(Biphenyl-3-sulfonyl)-5-methylsulfanyl-thiophene-2-carboxamidine trifluoroacetate] | 6 to 23
4 | CSc1sc(C(=N)N)cc1S(=O)(=O)c1cccc(-c2cc3ccccc3s2)c1 [Example 50, 4-(3-Benzo[b]thiophen-2-yl-benzenesulfonyl)-5-methylsulfanyl-thiophene-2-carboxamidine] | 6 to 23
5 | CSc1sc(C(=N)N)cc1S(=O)(=O)c1cccc(-c2c(C)cc(NC(=N)N)cc2NC(=O)CCCCCCCCCCC(=O)O)c1 [Example 295, 11-[3′-(5-Carbamimidoyl-2-methylsulfanyl-thiophene-3-sulfonyl)-4-guanidino-6-methyl-biphenyl-2-ylcarbamoyl]-undecanoic acid bis-trifluoroacetate] | 6 to 23
6 | CSc1sc(C(=N)N)cc1S(=O)(=O)c1cccc(-c2c(C)cccc2NC(=O)NCCCc2ccccc2)c1 [Example 203, 4-{6′-Methyl-2′-[3-(3-phenyl-propyl)-ureido]-biphenyl-3-sulfonyl}-5-methylsulfanyl-thiophene-2-carboxamidine trifluoroacetate] | 6 to 23
7 | CSc1sc(C(=N)N)cc1S(=O)(=O)c1cnc(N)c(-c2ccccc2C)c1 [Example 121, 4-(6-Amino-5-o-tolyl-pyridine-3-sulfonyl)-5-methylsulfanyl-thiophene-2-carboxamidine] | 6 to 23
8 | CSc1sc(C(=N)N)cc1S(=O)(=O)c1cccc(-c2cccnc2Cl)c1 [Example 10, 4-[3-(2-Chloro-pyridin-3-yl)-benzenesulfonyl]-5-methylsulfanyl-thiophene-2-carboxamidine; bis-trifluoroacetate] | 6 to 23
9 | CSc1sc(C(=N)N)cc1S(=O)(=O)c1cccc(-c2ccc(O)cc2)c1 [Example 79, 4-(4′-Hydroxy-biphenyl-3-sulfonyl)-5-methylsulfanyl-thiophene-2-carboxamidine] | 6 to 23
10 | CSc1sc(C(=N)N)cc1S(=O)(=O)c1cccc(-c2ccc(NC(=O)NCCCS(C)(=O)=O)cc2C)c1 [Example 296, 4-{4′-[3-(3-Methanesulfonyl-propyl)-ureido]-2′-methyl-biphenyl-3-sulfonyl}-5-methylsulfanyl-thiophene-2-carboxamidine trifluoroacetate] | 6 to 23
11 | CSc1sc(C(=N)N)cc1S(=O)(=O)c1cc(-c2ccccc2C)c2nc[nH]c2c1 [Example 110, 5-methylsulfanyl-4-(7-o-tolyl-3H-benzoimidazole-5-sulfonyl)-thiophene-2-carboxamidine trifluoroacetate] | 6 to 23
12 | CSc1sc(C(=N)N)cc1S(=O)(=O)c1cccc(-c2c(C)cc(NC(=N)N)cc2NC(=O)CCCS(C)(=O)=O)c1 [Example 260, N-[3′-(5-Carbamimidoyl-2-methylsulfanyl-thiophene-3-sulfonyl)-4-guanidino-6-methyl-biphenyl-2-yl]-4-methanesulfonyl-butyramide bis-trifluoroacetate] | 6 to 23
13 | CSc1sc(C(=N)N)cc1S(=O)(=O)c1cccc(-c2c(C)cc(NC(=N)N)cc2NC(=O)CSCCC(=O)O)c1 [Example 239, 3-{[3′-(5-Carbamimidoyl-2-methylsulfanyl-thiophene-3-sulfonyl)-4-guanidino-6-methyl-biphenyl-2-ylcarbamoyl]-methylsulfanyl}-propionic acid bis-trifluoroacetate] | 6 to 23
14 | COc1cc(C)c(-c2cccc(S(=O)(=O)c3cc(C(=N)N)sc3SC)c2)c(NC(=O)CCS(C)(=O)=O)c1 [Example 256, N-[3′-(5-Carbamimidoyl-2-methylsulfanyl-thiophene-3-sulfonyl)-4-methoxy-6-methyl-biphenyl-2-yl]-3-methanesulfonyl-propionamide trifluoroacetate] | 6 to 23
15 | CSc1sc(C(=N)N)cc1S(=O)(=O)c1cccc(-c2cccc(C(O)C(F)(F)F)c2)c1 (stereo not drawn) [Example 28, 5-Methylsulfanyl-4-[3′-(2,2,2-trifluoro-1-hydroxy-ethyl)-biphenyl-3-sulfonyl]-thiophene-2-carboxamidine trifluoroacetate] | 6 to 23
16 | COc1ccc(-c2cccc(S(=O)(=O)c3cc(C(=N)N)sc3SC)c2)cc1OC [Example 43, 4-(3′,4′-Dimethoxy-biphenyl-3-sulfonyl)-5-methylsulfanyl-thiophene-2-carboxamidine] | 6 to 23
17 | CSc1sc(C(=N)N)cc1S(=O)(=O)c1cccc(-c2c(C)cccc2NC(=O)NCCNS(=O)(=O)c2ccccc2)c1 [Example 194, 4-{2′-[3-(2-Benzenesulfonylamino-ethyl)-ureido]-6′-methyl-biphenyl-3-sulfonyl}-5-methylsulfanyl-thiophene-2-carboxamidine trifluoroacetate] | 6 to 23
18 | COc1ccc(-c2cccc(S(=O)(=O)c3cc(C(=N)N)sc3SC)c2)c(OC)c1 [Example 41, 4-(2′,4′-Dimethoxy-biphenyl-3-sulfonyl)-5-methylsulfanyl-thiophene-2-carboxamidine] | 6 to 23
19 | CSc1sc(C(=N)N)cc1S(=O)(=O)c1cccc(-c2cccc(C(=O)N(C)C)c2)c1 [Example 103, 3′-(5-carbamimidoyl-2-methylsulfanyl-thiophene-3-sulfonyl)-biphenyl-3-carboxylic acid dimethylamide] | 6 to 23
20 | CSc1sc(C(=N)N)cc1S(=O)(=O)c1cccc(-c2ccc(OC(F)(F)F)cc2)c1 [Example 55, 5-Methylsulfanyl-4-(4′-trifluoromethoxy-biphenyl-3-sulfonyl)-thiophene-2-carboxamidine] | 6 to 23
21 | CO/N=C(\N)Nc1ccc(-c2cccc(S(=O)(=O)c3cc(C(=N)N)sc3SC)c2)c(C)c1 [Example 315, 4-[2′-Methyl-4′-(N′-methoxyl-guanidino)-biphenyl-3-sulfonyl]-5-methylsulfanyl-thiophene-2-carboxamidine bis-trifluoroacetate] | 6 to 23
22 | COc1cccc(S(=O)(=O)c2cc(C(=N)N)sc2SC)c1 [Example 114, 4-(3-Methoxy-benzenesulfonyl)-5-methylsulfanyl-thiophene-2-carboxamidine hydrochloride HCl] | 6 to 23
23 | CSc1sc(C(=N)N)cc1S(=O)(=O)c1cccc(-c2ccc(NC(=N)NCCCS(C)(=O)=O)cc2C)c1 [Example 171, 4-{4′-[N′-(3-Methanesulfonyl-propyl)-guanidino]-2′-methyl-biphenyl-3-sulfonyl}-5-methylsulfanyl-thiophene-2-carboxamidine trifluoroacetate] | 6 to 23
24 | CSc1sc(C(=N)N)cc1S(=O)(=O)c1cccc(-c2ccc(Cl)s2)c1 [Example 92, 4-[3-(5-Chloro-thiophen-2-yl)-benzenesulfonyl]-5-methylsulfanyl-thiophene-2-carboxamidine] | 6 to 23
